Each compound was assayed against c-Kit (Homo sapiens, UniProt P10721) (assay: c-Kit biochemical assay (per US 2007/0032519)). Settings: not given.
Chain of c-Kit (P10721 26-976): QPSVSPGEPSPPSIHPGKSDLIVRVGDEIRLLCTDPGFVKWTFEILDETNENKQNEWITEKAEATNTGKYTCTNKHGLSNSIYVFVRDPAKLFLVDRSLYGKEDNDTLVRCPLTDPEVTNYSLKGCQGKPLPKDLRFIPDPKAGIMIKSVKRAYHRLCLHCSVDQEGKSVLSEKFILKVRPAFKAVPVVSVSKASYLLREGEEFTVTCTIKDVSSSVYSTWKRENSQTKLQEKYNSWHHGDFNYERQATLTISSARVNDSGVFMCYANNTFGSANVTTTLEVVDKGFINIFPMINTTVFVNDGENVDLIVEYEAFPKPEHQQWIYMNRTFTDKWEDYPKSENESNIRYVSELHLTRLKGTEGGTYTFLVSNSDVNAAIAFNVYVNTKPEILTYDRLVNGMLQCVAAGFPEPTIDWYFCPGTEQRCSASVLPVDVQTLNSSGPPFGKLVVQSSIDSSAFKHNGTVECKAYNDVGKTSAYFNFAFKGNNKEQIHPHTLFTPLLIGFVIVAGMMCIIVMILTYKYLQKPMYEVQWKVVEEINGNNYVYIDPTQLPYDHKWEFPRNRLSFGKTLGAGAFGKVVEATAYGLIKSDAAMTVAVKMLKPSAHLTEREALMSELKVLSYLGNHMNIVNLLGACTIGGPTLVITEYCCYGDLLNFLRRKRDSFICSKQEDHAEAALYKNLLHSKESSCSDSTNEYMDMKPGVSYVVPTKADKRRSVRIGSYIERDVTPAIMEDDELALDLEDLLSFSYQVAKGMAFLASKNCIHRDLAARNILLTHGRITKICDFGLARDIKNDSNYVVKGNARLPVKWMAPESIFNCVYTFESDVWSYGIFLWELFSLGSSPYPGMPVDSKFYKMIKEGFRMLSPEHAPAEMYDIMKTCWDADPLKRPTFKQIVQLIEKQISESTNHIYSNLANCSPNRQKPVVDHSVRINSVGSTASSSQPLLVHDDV
In short: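 Biochemical kinase inhibition run per US 2007/0032519; values reported as binned IC50 ranges (0.0001–1 μM, 1–10 μM, 10–200 μM).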
For `CC(C)(C)n1cnc2ccc(-c3c[nH]c4ncc(-c5cnc(C#N)nc5)nc34)cc21` [P-352, 5-[7-(3-tert-butylbenzimidazol-5-yl)-5H-pyrrolo[2,3-b]pyrazin-2-yl]pyrimidine-2-carbonitrile], the IC50 was 10 to 200 µM.

These compounds were tested against T1, BA/F3-FLT3-ITD + F691L cells (Homo sapiens, UniProt P36888, F691L, cells depend on it, form not given) (assay: BA/F3-FLT3-ITD + F691L cell proliferation assay (CellTiter-Glo)). Settings: BaF3 FLT3 ITD/F691L cells; read-out: Cell Activity (IC50 μM) BaF3_FLT3_ITD/F691L.
T1 sequence (P36888 1-993 F691L): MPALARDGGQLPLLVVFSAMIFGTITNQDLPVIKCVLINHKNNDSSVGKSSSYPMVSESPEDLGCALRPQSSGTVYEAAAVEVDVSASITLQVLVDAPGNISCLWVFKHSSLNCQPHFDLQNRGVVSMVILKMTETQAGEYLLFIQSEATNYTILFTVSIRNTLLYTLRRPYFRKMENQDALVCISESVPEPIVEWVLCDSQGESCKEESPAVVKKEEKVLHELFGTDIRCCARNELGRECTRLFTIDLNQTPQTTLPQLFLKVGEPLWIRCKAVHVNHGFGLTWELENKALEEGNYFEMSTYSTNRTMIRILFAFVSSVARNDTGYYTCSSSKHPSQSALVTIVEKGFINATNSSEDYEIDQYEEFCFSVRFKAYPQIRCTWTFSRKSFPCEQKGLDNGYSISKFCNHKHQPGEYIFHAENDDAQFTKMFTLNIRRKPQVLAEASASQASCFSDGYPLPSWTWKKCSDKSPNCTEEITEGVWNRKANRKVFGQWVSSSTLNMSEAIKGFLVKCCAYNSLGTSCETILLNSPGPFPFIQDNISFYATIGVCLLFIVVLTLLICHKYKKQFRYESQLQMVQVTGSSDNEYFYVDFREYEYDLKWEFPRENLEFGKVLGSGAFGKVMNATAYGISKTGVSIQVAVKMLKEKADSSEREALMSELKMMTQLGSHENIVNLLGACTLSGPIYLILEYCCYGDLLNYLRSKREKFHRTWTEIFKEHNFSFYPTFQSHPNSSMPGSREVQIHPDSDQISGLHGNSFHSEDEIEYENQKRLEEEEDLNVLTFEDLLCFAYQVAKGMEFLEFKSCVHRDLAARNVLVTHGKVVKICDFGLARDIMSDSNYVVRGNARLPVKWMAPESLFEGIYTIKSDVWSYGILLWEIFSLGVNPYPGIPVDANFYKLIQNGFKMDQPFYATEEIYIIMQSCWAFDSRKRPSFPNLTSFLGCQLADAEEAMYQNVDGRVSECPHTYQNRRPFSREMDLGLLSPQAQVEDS
Format: cell-based, murine
In short: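 Three-day growth assay, IC50 from CellTiter-Glo ATP luminescence vs concentration. Compounds at 10 to 0.0046 μM (1:3 steps, final DMSO 0.2%) on 1×10^4 cells/well. Cells are IL-3-independent BA/F3 lines engineered to express full-length FLT3-ITD with the D835Y or the F691L mutation.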
In the case of `CC(C)(C)n1cnc2ccc(-c3c[nH]c4ncc(-c5cnc(C#N)nc5)nc34)cc21` [P-352, 5-[7-(3-tert-butylbenzimidazol-5-yl)-5H-pyrrolo[2,3-b]pyrazin-2-yl]pyrimidine-2-carbonitrile], the GI50 was 0.0001 to 1 µM.
For `c1cc(-c2cnc3[nH]cc(-c4ccc5ncn(C6CCCNC6)c5c4)c3n2)cc(N2CCCCC2)c1` (stereo not shown) [P-337, 7-[3-(3-piperidyl)benzimidazol-5-yl]-2-[3-(1-piperidyl)phenyl]-5H-pyrrolo[2,3-b]pyrazine], the GI50 was 0.0001 to 1 µM.
Compound `c1cc(-c2cnc3[nH]cc(-c4ccc5ncn(C6CCCNC6)c5c4)c3n2)cc(N2CCCCC2)n1` (stereo not shown) [P-339, 7-[3-(3-piperidyl)benzimidazol-5-yl]-2-[2-(1-piperidyl)-4-pyridyl]-5H-pyrrolo[2,3-b]pyrazine] has a GI50 of 0.0001 to 1 µM.
With `CC(C)(C)n1cnc2ccc(-c3n[nH]c4ncc(-c5cccc(N6CCCS6(=O)=O)c5)cc34)cc21` [P-296, 2-[3-[3-(3-tert-butylbenzimidazol-5-yl)-1H-pyrazolo[3,4-b]pyridin-5-yl]phenyl]-1,2-thiazolidine 1,1-dioxide] the GI50 was 0.0001 to 1 µM.
Work on `CC(C)(C)n1cnc2ccc(-c3c[nH]c4nnc(Cl)cc34)cc21` [P-314, 5-(3-tert-butylbenzimidazol-5-yl)-3-chloro-7H-pyrrolo[2,3-c]pyridazine] yielded a GI50 of 0.0001 to 1 µM.
`CC(C)(C)n1cnc2ccc(-c3c[nH]c4ncc(-c5ccc(C#N)nc5)cc34)cc21` [P-290, 5-[3-(3-tert-butylbenzimidazol-5-yl)-1H-pyrrolo[2,3-b]pyridin-5-yl]pyridine-2-carbonitrile] gave a GI50 of 0.0001 to 1 µM.
`c1cc(N2CCOCC2)ncc1-c1cnc2[nH]cc(-c3ccc4ncn(C5CCCNC5)c4c3)c2c1` (stereo not shown) [P-321, 4-[5-[3-[3-(3-piperidyl)benzimidazol-5-yl]-1H-pyrrolo[2,3-b]pyridin-5-yl]-2-pyridyl]morpholine] showed a GI50 of 0.0001 to 1 µM.
`Cc1ncc(C#Cc2cnc3[nH]cc(-c4ccc5ncn(C(C)(C)C)c5c4)c3c2)cn1` [P-383, 1-tert-butyl-6-[5-[2-(2-methylpyrimidin-5-yl)ethynyl]-1H-pyrrolo[2,3-b]pyridin-3-yl]benzimidazole] was tested, and the GI50 was 0.0001 to 1 µM.
`O=S1(=O)CCCCN1c1cc(-c2cnc3[nH]cc(-c4ccc5ncn(C6CCCNC6)c5c4)c3n2)ccn1` (stereo not shown) [P-310, 2-[4-[7-[3-(3-piperidyl)benzimidazol-5-yl]-5H-pyrrolo[2,3-b]pyrazin-2-yl]-2-pyridyl]thiazinane 1,1-dioxide] showed a GI50 of 0.0001 to 1 µM.
`CCN1CCN(c2ccc(-c3cnc4[nH]cc(-c5ccc6ncn(C7CCCNC7)c6c5)c4n3)cn2)CC1` (stereo not shown) [P-366, 2-[6-(4-ethylpiperazin-1-yl)-3-pyridyl]-7-[3-(3-piperidyl)benzimidazol-5-yl]-5H-pyrrolo[2,3-b]pyrazine] gave a GI50 of 0.0001 to 1 µM.
`CCN1CCN(c2ccc(-c3cnc4[nH]cc(-c5ccc6ncn(C(C)(C)C)c6c5)c4n3)cc2)CC1` [P-358, 7-(3-tert-butylbenzimidazol-5-yl)-2-[4-(4-ethylpiperazin-1-yl)phenyl]-5H-pyrrolo[2,3-b]pyrazine] showed a GI50 of 0.0001 to 1 µM.
In the case of `FC(F)n1cc(-c2cnc3[nH]cc(-c4ccc5ncn(C6CCCNC6)c5c4)c3c2)cn1` (stereo not shown) [P-274, 5-[1-(difluoromethyl)pyrazol-4-yl]-3-[3-(3-piperidyl)benzimidazol-5-yl]-1H-pyrrolo[2,3-b]pyridine], the GI50 was 0.0001 to 1 µM.
With `CN1CCN(c2cccc(-c3cnc4[nH]cc(-c5ccc6ncn(C7CCCNC7)c6c5)c4n3)c2)CC1` (stereo not shown) [P-332, 2-[3-(4-methylpiperazin-1-yl)phenyl]-7-[3-(3-piperidyl)benzimidazol-5-yl]-5H-pyrrolo[2,3-b]pyrazine] the GI50 was 0.0001 to 1 µM.
`CC(C)(C)n1cnc2ccc(-c3c[nH]c4ncc(-c5ccc(N6CCC(F)(F)CC6)nc5)nc34)cc21` [P-356, 7-(3-tert-butylbenzimidazol-5-yl)-2-[6-(4,4-difluoro-1-piperidyl)-3-pyridyl]-5H-pyrrolo[2,3-b]pyrazine] showed a GI50 of 0.0001 to 1 µM.
Compound `CCN1CCN(c2cc(-c3cnc4[nH]cc(-c5ccc6ncn(C(C)(C)C)c6c5)c4n3)ccn2)CC1` [P-328, 7-(3-tert-butylbenzimidazol-5-yl)-2-[2-(4-ethylpiperazin-1-yl)-4-pyridyl]-5H-pyrrolo[2,3-b]pyrazine] has a GI50 of 0.0001 to 1 µM.
In the case of `CC(C)(C)n1cnc2ccc(-c3n[nH]c4ncc(-c5ccnc(N6CCOCC6)c5)cc34)cc21` [P-297, 4-[4-[3-(3-tert-butylbenzimidazol-5-yl)-1H-pyrazolo[3,4-b]pyridin-5-yl]-2-pyridyl]morpholine], the GI50 was 0.0001 to 1 µM.
`Cc1cc(C#Cc2cnc3[nH]cc(-c4ccc5ncn(C6CCCNC6)c5c4)c3n2)cc(C)n1` (stereo not shown) [P-283, 2-[2-(2,6-dimethyl-4-pyridyl)ethynyl]-7-[3-(3-piperidyl)benzimidazol-5-yl]-5H-pyrrolo[2,3-b]pyrazine] was tested, and the GI50 was 0.0001 to 1 µM.
`COc1cc(-c2cnc3[nH]cc(-c4ccc5ncn(C(C)(C)C)c5c4)c3c2)c(OC)nn1` [P-292, 1-tert-butyl-6-[5-(3,6-dimethoxypyridazin-4-yl)-1H-pyrrolo[2,3-b]pyridin-3-yl]benzimidazole] gave a GI50 of 0.0001 to 1 µM.
`c1cc(N2CCCCC2)ccc1-c1cnc2[nH]cc(-c3ccc4ncn(C5CCCNC5)c4c3)c2n1` (stereo not shown) [P-346, 7-[3-(3-piperidyl)benzimidazol-5-yl]-2-[4-(1-piperidyl)phenyl]-5H-pyrrolo[2,3-b]pyrazine] showed a GI50 of 0.0001 to 1 µM.
Compound `CN1CCN(c2ccc(-c3cnc4[nH]cc(-c5ccc6ncn(C(C)(C)C)c6c5)c4n3)cc2)CC1` [P-341, 7-(3-tert-butylbenzimidazol-5-yl)-2-[4-(4-methylpiperazin-1-yl)phenyl]-5H-pyrrolo[2,3-b]pyrazine] has a GI50 of 0.0001 to 1 µM.
Compound `CC(C)(C)n1cnc2ccc(-c3c[nH]c4ncc(-c5ccc(N6CCOCC6)nc5)nc34)cc21` [P-326, 4-[5-[7-(3-tert-butylbenzimidazol-5-yl)-5H-pyrrolo[2,3-b]pyrazin-2-yl]-2-pyridyl]morpholine] has a GI50 of 0.0001 to 1 µM.
`FC(F)(F)Cn1cc(-c2cnc3[nH]cc(-c4ccc5ncn(C6CCCNC6)c5c4)c3c2)cn1` (stereo not shown) [P-275, 1-(3-piperidyl)-6-[5-[1-(2,2,2-trifluoroethyl)pyrazol-4-yl]-1H-pyrrolo[2,3-b]pyridin-3-yl]benzimidazole] showed a GI50 of 0.0001 to 1 µM.
Work on `c1cc(N2CCCCC2)ncc1-c1cnc2[nH]cc(-c3ccc4ncn(C5CCCNC5)c4c3)c2n1` (stereo not shown) [P-348, 7-[3-(3-piperidyl)benzimidazol-5-yl]-2-[6-(1-piperidyl)-3-pyridyl]-5H-pyrrolo[2,3-b]pyrazine] yielded a GI50 of 0.0001 to 1 µM.
Work on `Cc1ncc(-c2cnc3[nH]cc(-c4ccc5ncn(C(C)(C)C)c5c4)c3n2)cn1` [P-289, 7-(3-tert-butylbenzimidazol-5-yl)-2-(2-methylpyrimidin-5-yl)-5H-pyrrolo[2,3-b]pyrazine] yielded a GI50 of 0.0001 to 1 µM.
`CCN1CCN(c2cccc(-c3cnc4[nH]cc(-c5ccc6ncn(C7CCCNC7)c6c5)c4n3)c2)CC1` (stereo not shown) [P-329, 2-[3-(4-ethylpiperazin-1-yl)phenyl]-7-[3-(3-piperidyl)benzimidazol-5-yl]-5H-pyrrolo[2,3-b]pyrazine] showed a GI50 of 0.0001 to 1 µM.
Work on `CC(C)(C)n1cnc2ccc(-c3c[nH]c4ncc(-c5ccnc(C#N)c5)cc34)cc21` [P-291, 4-[3-(3-tert-butylbenzimidazol-5-yl)-1H-pyrrolo[2,3-b]pyridin-5-yl]pyridine-2-carbonitrile] yielded a GI50 of 0.0001 to 1 µM.
With `CC(C)(C)n1cnc2ccc(-c3c[nH]c4ncc(-c5ccc(N6CCCCC6)cc5)nc34)cc21` [P-345, 7-(3-tert-butylbenzimidazol-5-yl)-2-[4-(1-piperidyl)phenyl]-5H-pyrrolo[2,3-b]pyrazine] the GI50 was 0.0001 to 1 µM.
`CC(C)(C)n1cnc2ccc(-c3c[nH]c4ncc(-c5cccc(N6CCCCC6)c5)nc34)cc21` [P-336, 7-(3-tert-butylbenzimidazol-5-yl)-2-[3-(1-piperidyl)phenyl]-5H-pyrrolo[2,3-b]pyrazine] gave a GI50 of 0.0001 to 1 µM.
`CCN1CCN(c2cc(-c3cnc4[nH]cc(-c5ccc6ncn(C7CCCNC7)c6c5)c4n3)ccn2)CC1` (stereo not shown) [P-327, 2-[2-(4-ethylpiperazin-1-yl)-4-pyridyl]-7-[3-(3-piperidyl)benzimidazol-5-yl]-5H-pyrrolo[2,3-b]pyrazine] was tested, and the GI50 was 0.0001 to 1 µM.
`CC(C)(C)n1cnc2ccc(-c3c[nH]c4ncc(-c5ccnc(N6CCCCC6)c5)nc34)cc21` [P-338, 7-(3-tert-butylbenzimidazol-5-yl)-2-[2-(1-piperidyl)-4-pyridyl]-5H-pyrrolo[2,3-b]pyrazine] showed a GI50 of 0.0001 to 1 µM.

Reference: patent publication US10160755B2 (Plexxikon Inc., priority 2015, dated 2018)
